Measurements reported in ChEMBL document CHEMBL1208724, “A new group of oxime carbamates as reversible inhibitors of fatty acid amide hydrolase” (Bioorg Med Chem Lett, 2010).

Legend:
[1] = molecular target: Cannabinoid receptor 1 (Mus musculus, UniProt P47746); assay: Inhibition of mouse brain CB1 receptor
[2] = molecular target: Cannabinoid receptor 2 (Mus musculus, UniProt P47936); assay: Inhibition of mouse brain CB2 receptor
[3] = molecular target: Transient receptor potential cation channel subfamily V member 1 (Mus musculus, UniProt Q704Y3); assay: Inhibition of mouse TRPV1 receptor
[4] = Inhibition of mouse brain AMT
[5] = molecular target: N-acyl-phosphatidylethanolamine-hydrolyzing phospholipase D (Mus musculus, UniProt Q8BH82); assay: Inhibition of mouse NAPEPLD
[6] = molecular target: Adenosine receptor A1 (Homo sapiens, UniProt P30542); assay: Displacement of [3H]DPCPX from human recombinant A1 receptor expressed in CHO cells; type: cell-based
Sequence of Adenosine receptor A1 (P30542 whole entry): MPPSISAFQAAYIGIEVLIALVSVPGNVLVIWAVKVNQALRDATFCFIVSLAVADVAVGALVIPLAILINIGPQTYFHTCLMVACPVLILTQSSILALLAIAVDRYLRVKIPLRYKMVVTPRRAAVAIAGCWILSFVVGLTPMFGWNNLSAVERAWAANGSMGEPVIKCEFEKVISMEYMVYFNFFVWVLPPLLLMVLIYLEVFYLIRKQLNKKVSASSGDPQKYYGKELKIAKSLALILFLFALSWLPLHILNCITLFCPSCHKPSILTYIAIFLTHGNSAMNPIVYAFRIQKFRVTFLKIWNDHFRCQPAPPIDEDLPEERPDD

[7] = molecular target: Adenosine receptor A2a (Homo sapiens, UniProt P29274); assay: Displacement of [3H]CGS21680 from human recombinant A2A receptor expressed in HEK293 cells; type: cell-based
Sequence of Adenosine receptor A2a (P29274 whole entry): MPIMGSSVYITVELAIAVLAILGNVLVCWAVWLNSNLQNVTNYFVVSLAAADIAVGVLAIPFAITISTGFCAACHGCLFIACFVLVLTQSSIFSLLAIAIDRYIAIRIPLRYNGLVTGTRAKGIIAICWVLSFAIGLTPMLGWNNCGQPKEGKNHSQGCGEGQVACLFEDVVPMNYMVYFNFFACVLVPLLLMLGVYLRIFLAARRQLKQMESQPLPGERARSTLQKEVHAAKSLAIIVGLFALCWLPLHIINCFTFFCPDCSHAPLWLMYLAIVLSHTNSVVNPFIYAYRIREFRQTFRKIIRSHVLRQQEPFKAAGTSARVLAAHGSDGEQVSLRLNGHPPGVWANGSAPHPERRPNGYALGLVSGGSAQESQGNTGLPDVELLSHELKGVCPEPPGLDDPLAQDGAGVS

[8] = molecular target: Adenosine receptor A3 (Homo sapiens, UniProt P0DMS8); assay: Displacement of [3H]AB-MECA from human recombinant A3 receptor expressed in HEK293 cells; type: cell-based
[9] = molecular target: Adrenergic receptor alpha-2 (Rattus norvegicus, UniProt P22086+P19328+P22909); assay: Displacement of [3H][…] from alpha2 receptor in rat cerebral cortex; type: tissue-based
[10] = molecular target: Type-1 angiotensin II receptor (Homo sapiens, UniProt P30556); assay: Displacement of [125I][Sar1,Ile8]-AT II from human recombinant AT1 receptor expressed in HEK293 cells; type: cell-based
[11] = Displacement of [3H]flunitrazepam from BZD receptor in rat cerebral cortex; type: tissue-based
[12] = molecular target: B2 bradykinin receptor (Homo sapiens, UniProt P30411); assay: Displacement of [3H]bradykinin from human recombinant bradykinin B2 receptor expressed in CHO cells; type: cell-based
Sequence of B2 bradykinin receptor (P30411 whole entry): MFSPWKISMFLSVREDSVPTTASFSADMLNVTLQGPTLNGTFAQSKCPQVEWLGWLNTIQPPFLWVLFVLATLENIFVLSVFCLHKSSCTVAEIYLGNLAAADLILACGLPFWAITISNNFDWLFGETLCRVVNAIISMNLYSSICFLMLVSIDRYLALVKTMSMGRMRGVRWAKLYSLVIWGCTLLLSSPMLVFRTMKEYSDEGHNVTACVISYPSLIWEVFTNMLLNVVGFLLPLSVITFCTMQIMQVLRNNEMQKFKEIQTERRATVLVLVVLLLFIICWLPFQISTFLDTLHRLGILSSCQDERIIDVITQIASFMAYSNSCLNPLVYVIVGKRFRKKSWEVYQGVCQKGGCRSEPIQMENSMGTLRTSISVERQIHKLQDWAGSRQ

[13] = molecular target: Cholecystokinin receptor type A (Homo sapiens, UniProt P32238); assay: Displacement of [125I]CCK-8 from human recombinant CCKA receptor expressed in CHO cells; type: cell-based
[14] = molecular target: D(1A) dopamine receptor (Homo sapiens, UniProt P21728); assay: Displacement of [3H]SCH 23390 from human recombinant dopamine D1 receptor expressed in CHO cells; type: cell-based
[15] = molecular target: D(2) dopamine receptor (Homo sapiens, UniProt P14416); assay: Displacement of [3H]spiperone from human recombinant dopamine D2S receptor expressed in HEK293 cells; type: cell-based
[16] = molecular target: Endothelin-1 receptor (Homo sapiens, UniProt P25101); assay: Displacement of [125I]endothelin-1 from human recombinant ETA receptor expressed in CHO cells; type: cell-based
[17] = molecular target: C-C chemokine receptor type 1 (Homo sapiens, UniProt P32246); assay: Displacement of [125I]MIP-1a from human recombinant CCR1 receptor expressed in HEK293 cells; type: cell-based
[18] = molecular target: Histamine H1 receptor (Homo sapiens, UniProt P35367); assay: Displacement of [3H]pyrilamine from human recombinant histamine H1 receptor expressed in HEK293 cells; type: cell-based
[19] = molecular target: Histamine H2 receptor (Homo sapiens, UniProt P25021); assay: Displacement of [125I]APT from human recombinant histamine H2 receptor expressed in CHO cells; type: cell-based
[20] = molecular target: Melanocortin receptor 4 (Homo sapiens, UniProt P32245); assay: Displacement of [125I]NDP-a-MSH from human recombinant MC4 receptor expressed in CHO cells; type: cell-based
Sequence of Melanocortin receptor 4 (P32245 whole entry): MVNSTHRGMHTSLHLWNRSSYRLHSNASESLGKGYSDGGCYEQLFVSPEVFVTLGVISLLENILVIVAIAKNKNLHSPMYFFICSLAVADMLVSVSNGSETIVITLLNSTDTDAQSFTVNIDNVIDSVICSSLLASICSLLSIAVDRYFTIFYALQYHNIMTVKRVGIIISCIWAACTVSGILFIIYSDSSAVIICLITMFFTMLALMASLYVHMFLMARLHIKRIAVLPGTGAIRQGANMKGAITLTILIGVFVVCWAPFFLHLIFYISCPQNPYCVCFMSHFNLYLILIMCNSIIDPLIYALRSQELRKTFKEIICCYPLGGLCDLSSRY

[21] = molecular target: Muscarinic acetylcholine receptor M1 (Homo sapiens, UniProt P11229); assay: Displacement of [3H]pirenzepine from human recombinant muscarinic M1 receptor expressed in CHO cells; type: cell-based
[22] = molecular target: Muscarinic acetylcholine receptor M3 (Homo sapiens, UniProt P20309); assay: Displacement of [3H]4-DAMP from human recombinant muscarinic M3 receptor expressed in CHO cells; type: cell-based
Sequence of Muscarinic acetylcholine receptor M3 (P20309 whole entry): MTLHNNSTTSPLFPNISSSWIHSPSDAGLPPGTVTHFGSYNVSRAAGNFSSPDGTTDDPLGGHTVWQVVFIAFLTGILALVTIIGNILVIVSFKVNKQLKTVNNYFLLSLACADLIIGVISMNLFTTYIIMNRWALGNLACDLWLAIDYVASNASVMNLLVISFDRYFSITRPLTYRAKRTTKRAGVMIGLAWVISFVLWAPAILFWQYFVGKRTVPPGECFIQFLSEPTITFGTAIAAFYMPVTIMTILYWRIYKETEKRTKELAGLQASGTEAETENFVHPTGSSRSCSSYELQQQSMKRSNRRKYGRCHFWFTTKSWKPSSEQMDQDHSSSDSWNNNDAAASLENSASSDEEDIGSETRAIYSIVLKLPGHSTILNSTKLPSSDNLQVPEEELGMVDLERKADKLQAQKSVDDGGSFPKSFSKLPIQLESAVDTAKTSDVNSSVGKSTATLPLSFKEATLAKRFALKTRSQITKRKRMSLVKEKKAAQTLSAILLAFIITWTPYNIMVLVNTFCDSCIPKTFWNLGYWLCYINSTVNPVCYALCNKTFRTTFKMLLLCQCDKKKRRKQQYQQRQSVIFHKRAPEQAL

[23] = molecular target: Substance-K receptor (Homo sapiens, UniProt P21452); assay: Displacement of [125I]NKA from human recombinant NK2 receptor expressed in CHO cells; type: cell-based
[24] = molecular target: Neuromedin-K receptor (Homo sapiens, UniProt P29371); assay: Displacement of [3H]SR 142801 from human recombinant NK3 receptor expressed in CHO cells; type: cell-based
[25] = molecular target: Neuropeptide Y receptor type 2 (Homo sapiens, UniProt P49146); assay: Displacement of [125I]peptide YY from human recombinant Y2 receptor expressed in KAN-TS cells; type: cell-based
[26] = molecular target: Kappa-type opioid receptor (Rattus norvegicus, UniProt P34975); assay: Displacement of [3H]U69593 from rat recombinant kappa opioid receptor expressed in CHO cells; type: cell-based
[27] = molecular target: Mu-type opioid receptor (Homo sapiens, UniProt P35372); assay: Displacement of [3H]DAMGO from human recombinant mu opioid receptor expressed in HEK293 cells; type: cell-based
[28] = molecular target: Nociceptin receptor (Homo sapiens, UniProt P41146); assay: Displacement of [3H]nociceptin from human recombinant ORL1 receptor expressed in H recombinant HEK293 cells; type: cell-based
Sequence of Nociceptin receptor (P41146 whole entry): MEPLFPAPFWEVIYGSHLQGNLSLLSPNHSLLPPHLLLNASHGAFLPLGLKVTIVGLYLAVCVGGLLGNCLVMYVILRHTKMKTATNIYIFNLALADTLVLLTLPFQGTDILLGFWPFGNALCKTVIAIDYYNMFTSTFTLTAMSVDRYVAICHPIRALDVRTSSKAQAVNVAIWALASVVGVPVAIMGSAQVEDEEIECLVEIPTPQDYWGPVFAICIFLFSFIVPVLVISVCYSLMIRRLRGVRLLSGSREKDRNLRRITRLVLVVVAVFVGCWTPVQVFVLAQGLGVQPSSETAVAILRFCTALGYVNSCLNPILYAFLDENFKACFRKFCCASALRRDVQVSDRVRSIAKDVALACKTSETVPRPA

[29] = molecular target: 5-hydroxytryptamine receptor 1A (Homo sapiens, UniProt P08908); assay: Displacement of [3H]8-OH-DPAT from human recombinant 5HT1A receptor expressed in HEK293 cells; type: cell-based
[30] = molecular target: 5-hydroxytryptamine receptor 1B (Rattus norvegicus, UniProt P28564); assay: Displacement of [125I]CYP from 5HT1B receptor expressed in rat cerebral cortex; type: tissue-based
Sequence of 5-hydroxytryptamine receptor 1B (P28564 whole entry): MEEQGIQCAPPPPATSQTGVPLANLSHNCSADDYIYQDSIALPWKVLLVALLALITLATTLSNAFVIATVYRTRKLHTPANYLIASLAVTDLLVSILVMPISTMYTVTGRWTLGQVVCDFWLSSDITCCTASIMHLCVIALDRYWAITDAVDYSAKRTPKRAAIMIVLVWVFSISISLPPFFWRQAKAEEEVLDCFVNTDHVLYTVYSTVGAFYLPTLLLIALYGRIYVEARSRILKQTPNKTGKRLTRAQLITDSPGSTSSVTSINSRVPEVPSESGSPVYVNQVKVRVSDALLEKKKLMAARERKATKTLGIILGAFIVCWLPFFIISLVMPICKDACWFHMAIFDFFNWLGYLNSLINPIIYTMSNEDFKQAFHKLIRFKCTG

[31] = molecular target: 5-hydroxytryptamine receptor 2A (Homo sapiens, UniProt P28223); assay: Displacement of [3H]Ketanserin from human recombinant 5HT2A receptor expressed in HEK293 cells; type: cell-based
Sequence of 5-hydroxytryptamine receptor 2A (P28223 whole entry): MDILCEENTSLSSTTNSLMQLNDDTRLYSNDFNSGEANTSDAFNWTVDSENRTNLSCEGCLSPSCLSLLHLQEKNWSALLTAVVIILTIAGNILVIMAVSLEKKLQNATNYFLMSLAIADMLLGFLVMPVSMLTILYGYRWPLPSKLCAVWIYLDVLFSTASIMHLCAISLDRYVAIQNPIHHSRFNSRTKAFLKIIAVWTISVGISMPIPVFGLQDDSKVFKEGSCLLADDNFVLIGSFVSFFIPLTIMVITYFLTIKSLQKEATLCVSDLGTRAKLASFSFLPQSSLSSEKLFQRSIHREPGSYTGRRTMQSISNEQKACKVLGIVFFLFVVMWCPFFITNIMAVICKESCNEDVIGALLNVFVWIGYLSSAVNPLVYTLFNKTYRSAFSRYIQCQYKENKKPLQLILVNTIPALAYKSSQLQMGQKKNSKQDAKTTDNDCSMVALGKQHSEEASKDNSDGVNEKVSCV

[32] = molecular target: 5-hydroxytryptamine receptor 3A (Homo sapiens, UniProt P46098); assay: Displacement of [3H]BRL 43694 from human recombinant 5HT3 receptor expressed in CHO cells; type: cell-based
[33] = molecular target: 5-hydroxytryptamine receptor 6 (Homo sapiens, UniProt P50406); assay: Displacement of [3H]LSD from human recombinant 5HT6 receptor expressed in CHO cells; type: cell-based
[34] = molecular target: 5-hydroxytryptamine receptor 7 (Homo sapiens, UniProt P34969); assay: Displacement of [3H]LSD from human recombinant 5HT7 receptor expressed in CHO cells; type: cell-based
Sequence of 5-hydroxytryptamine receptor 7 (P34969 whole entry): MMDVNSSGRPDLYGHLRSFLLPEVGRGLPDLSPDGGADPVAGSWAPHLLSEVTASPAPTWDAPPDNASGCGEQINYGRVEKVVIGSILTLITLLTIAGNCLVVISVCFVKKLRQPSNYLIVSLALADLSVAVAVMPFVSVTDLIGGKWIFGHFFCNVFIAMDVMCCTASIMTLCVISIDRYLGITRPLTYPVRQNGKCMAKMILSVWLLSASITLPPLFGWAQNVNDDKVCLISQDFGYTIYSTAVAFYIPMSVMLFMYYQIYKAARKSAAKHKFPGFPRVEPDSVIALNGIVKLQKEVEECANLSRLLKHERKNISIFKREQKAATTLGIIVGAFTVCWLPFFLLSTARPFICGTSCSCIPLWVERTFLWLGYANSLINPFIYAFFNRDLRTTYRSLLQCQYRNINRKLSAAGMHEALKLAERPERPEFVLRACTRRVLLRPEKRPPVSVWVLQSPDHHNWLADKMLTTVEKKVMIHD

[35] = Displacement of [125I]Tyr11-somatostatin-14 from human recombinant sst receptor expressed in AtT-20 cells; type: cell-based; conditions: att20
[36] = Displacement of [125I]VIP from human recombinant VIP receptor expressed in H recombinant CHO cells; type: cell-based
[37] = molecular target: Vasopressin V1a receptor (Homo sapiens, UniProt P37288); assay: Displacement of [3H]AVP from human recombinant V1a receptor expressed in H recombinant CHO cells; type: cell-based
[38] = molecular target: Voltage-gated L-type calcium channel (Rattus norvegicus, UniProt P22002+Q02485+P27732); assay: Displacement of [3H](-)D 888 from L-type calcium channel in rat cerebral cortex; type: tissue-based
[39] = molecular target: Small conductance calcium-activated potassium channel protein 1 (Rattus norvegicus, UniProt P70606); assay: Displacement of [125I]apamin from SK+Ca channel in rat cerebral cortex; type: tissue-based
[40] = molecular target: Sodium-dependent dopamine transporter (Homo sapiens, UniProt Q01959); assay: Displacement of [3H]BTCP from human recombinant dopamine transporter expressed in CHO cells; type: cell-based
Sequence of Sodium-dependent dopamine transporter (Q01959 whole entry): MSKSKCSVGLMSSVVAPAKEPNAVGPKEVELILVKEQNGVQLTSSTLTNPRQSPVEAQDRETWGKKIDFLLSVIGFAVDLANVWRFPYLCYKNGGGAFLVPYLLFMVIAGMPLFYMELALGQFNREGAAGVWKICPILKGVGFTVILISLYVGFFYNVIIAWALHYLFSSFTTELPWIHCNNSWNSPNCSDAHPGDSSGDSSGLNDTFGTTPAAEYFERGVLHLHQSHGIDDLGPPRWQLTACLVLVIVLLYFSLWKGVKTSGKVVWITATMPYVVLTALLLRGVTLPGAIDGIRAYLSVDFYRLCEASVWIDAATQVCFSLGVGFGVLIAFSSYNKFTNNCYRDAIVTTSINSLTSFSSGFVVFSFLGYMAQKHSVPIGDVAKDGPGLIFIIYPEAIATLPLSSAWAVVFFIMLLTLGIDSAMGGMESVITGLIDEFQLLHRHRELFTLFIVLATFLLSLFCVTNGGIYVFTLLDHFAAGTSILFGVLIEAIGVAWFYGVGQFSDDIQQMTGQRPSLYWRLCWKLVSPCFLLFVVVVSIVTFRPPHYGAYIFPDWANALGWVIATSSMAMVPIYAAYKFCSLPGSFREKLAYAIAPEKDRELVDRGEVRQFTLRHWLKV

[41] = molecular target: Sodium-dependent serotonin transporter (Homo sapiens, UniProt P31645); assay: Displacement of [3H]imipramine from human recombinant 5HT transporter expressed in CHO cells; type: cell-based

Sequence of Cannabinoid receptor 1 (P47746 whole entry): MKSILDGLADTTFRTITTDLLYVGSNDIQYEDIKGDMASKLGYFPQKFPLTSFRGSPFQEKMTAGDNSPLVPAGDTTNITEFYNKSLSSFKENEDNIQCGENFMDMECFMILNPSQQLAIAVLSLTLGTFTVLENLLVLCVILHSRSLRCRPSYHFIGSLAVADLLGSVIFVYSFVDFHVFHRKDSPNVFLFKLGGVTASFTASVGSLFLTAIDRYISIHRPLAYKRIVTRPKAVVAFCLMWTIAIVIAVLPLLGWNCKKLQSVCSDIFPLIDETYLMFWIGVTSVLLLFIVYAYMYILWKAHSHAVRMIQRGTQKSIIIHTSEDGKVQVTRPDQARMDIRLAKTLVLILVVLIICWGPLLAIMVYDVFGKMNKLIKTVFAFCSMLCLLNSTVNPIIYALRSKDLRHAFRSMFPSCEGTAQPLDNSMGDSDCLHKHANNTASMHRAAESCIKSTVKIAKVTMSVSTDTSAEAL

Work on C/C(=N\OC(=O)Nc1ccccc1)c1cccc(-c2cccs2)c1 yielded an IC50 [1] of over 10 µM, an IC50 [2] of 10 µM and an IC50 [3] of over 10 µM. The IC50 [4] was 0.1 µM, the IC50 [5] was over 10 µM and the IC50 [6] was over 10 µM. The IC50 [7] was over 10 µM, the IC50 [8] was 1 µM and the IC50 [9] was over 10 µM. The IC50 [10] was over 10 µM, the IC50 [11] was 1 µM and the IC50 [12] was over 10 µM. The IC50 [13] was 1 µM, the IC50 [14] was over 10 µM and the IC50 [15] was over 10 µM. The IC50 [16] was over 10 µM, the IC50 [17] was over 10 µM and the IC50 [18] was over 10 µM. It also gave an IC50 [19] of over 10 µM, an IC50 [20] of over 10 µM and an IC50 [21] of over 10 µM. The IC50 [22] was over 10 µM, the IC50 [23] was over 10 µM and the IC50 [24] was over 10 µM. It also gave an IC50 [25] of over 10 µM, an IC50 [26] of over 10 µM and an IC50 [27] of over 10 µM. For the same molecule, the IC50 [28] was over 10 µM, the IC50 [29] was 1 µM and the IC50 [30] was over 10 µM. For the same molecule, the IC50 [31] was over 10 µM, the IC50 [32] was over 10 µM and the IC50 [33] was over 10 µM. For the same molecule, the IC50 [34] was over 10 µM, the IC50 [35] was over 10 µM and the IC50 [36] was over 10 µM. It also gave an IC50 [37] of over 10 µM, an IC50 [38] of over 10 µM and an IC50 [39] of over 10 µM. It also gave an IC50 [40] of over 10 µM and an IC50 [41] of over 10 µM.
